Target: T1, human recombinant HDAC6 (Homo sapiens, UniProt Q9UBN7)
T1 construct: purchased Calbiochem 382180
T1 sequence (Q9UBN7 1-1215): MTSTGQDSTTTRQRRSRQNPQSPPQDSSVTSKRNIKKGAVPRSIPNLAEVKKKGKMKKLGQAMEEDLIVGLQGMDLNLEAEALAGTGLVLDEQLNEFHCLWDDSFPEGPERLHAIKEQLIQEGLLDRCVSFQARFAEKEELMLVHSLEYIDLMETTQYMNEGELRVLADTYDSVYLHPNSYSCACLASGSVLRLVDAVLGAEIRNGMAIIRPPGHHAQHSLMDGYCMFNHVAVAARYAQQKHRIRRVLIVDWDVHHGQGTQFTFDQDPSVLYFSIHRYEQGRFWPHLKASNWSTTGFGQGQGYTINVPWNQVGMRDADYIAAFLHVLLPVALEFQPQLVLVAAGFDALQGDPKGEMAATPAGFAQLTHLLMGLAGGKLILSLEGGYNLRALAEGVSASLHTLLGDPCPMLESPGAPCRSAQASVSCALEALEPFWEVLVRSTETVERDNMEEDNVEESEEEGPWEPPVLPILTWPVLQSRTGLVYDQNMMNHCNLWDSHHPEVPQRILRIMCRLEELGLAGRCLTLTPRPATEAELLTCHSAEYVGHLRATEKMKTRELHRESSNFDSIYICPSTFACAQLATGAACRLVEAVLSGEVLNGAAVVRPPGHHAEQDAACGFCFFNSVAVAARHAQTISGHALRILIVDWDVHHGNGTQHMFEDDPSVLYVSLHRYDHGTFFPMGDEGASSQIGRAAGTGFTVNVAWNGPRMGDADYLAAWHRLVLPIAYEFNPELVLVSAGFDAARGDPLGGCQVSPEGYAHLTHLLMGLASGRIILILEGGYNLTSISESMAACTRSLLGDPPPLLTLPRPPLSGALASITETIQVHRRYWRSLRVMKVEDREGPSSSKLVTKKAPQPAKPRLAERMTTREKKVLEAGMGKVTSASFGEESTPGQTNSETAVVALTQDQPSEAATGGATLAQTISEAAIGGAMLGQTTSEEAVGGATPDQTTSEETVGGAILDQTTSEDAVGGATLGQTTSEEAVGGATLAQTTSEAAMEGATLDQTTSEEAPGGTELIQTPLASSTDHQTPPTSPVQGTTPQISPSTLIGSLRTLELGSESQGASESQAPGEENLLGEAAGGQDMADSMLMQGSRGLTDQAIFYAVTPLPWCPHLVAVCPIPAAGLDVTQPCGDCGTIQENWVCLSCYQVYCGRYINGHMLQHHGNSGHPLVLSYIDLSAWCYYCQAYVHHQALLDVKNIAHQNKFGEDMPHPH
Test: HDAC6 enzyme activity inhibition assay (HDAC Fluorimetric Drug Discovery Kit)
Format: biochemical
Conditions: for HDAC6 selectivity (fold): HDAC6 over HDAC1; for IC50: human recombinant HDAC6, same protocol as HDAC1, read-out: HDAC6
How it was run: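 Human recombinant HDAC1 or HDAC6 (0.3 μg) reacted with 10 μM Fluor de Lys-SIRT1 substrate and 5-fold compound dilutions for 60 min at 30 °C. Developer II added for 30 min, fluorescence read at Ex 360/Em 460; IC50 calculated from the readings.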

SMILES	HDAC6 selectivity (fold)	IC50
O=C(N1CCS(=O)(=O)CC1)N(Cc1ccc(-c2nnc(C(F)F)o2)cn1)c1ccccc1F [Compound 21625, N-((5-(5-(difluoromethyl)-1,3,4-oxadiazol-2-yl)pyridin-2-yl)methyl)-N-(2-fluorophenyl)thiomorpholine-4-carboxamide 1,1-dioxide]	422 fold	24 nM
COc1cccc(N(Cc2ccc(-c3nnc(C(F)F)o3)cc2F)C(=O)N2CCS(=O)(=O)CC2)c1 [Compound 21482, N-(4-(5-(difluoromethyl)-1,3,4-oxadiazol-2-yl)-2-fluorobenzyl)-N-(3-methoxyphenyl)thiomorpholine-4-carboxamide 1,1-dioxide]	323 fold	31 nM
CN1CCN(C(=O)N(Cc2ccc(-c3nnc(C(F)F)o3)cc2F)c2ccc(Cl)cc2)CC1 [Compound 21468, N-(4-chlorophenyl)-N-(4-(5-(difluoromethyl)-1,3,4-oxadiazol-2-yl)-2-fluorobenzyl)-4-methylpiperazine-1-carboxamide]	159 fold	63 nM
CS(=O)(=O)N1CCN(C(=O)N(Cc2ccc(-c3nnc(C(F)(F)F)o3)cc2)c2ccccc2)CC1 [Compound 21363, 4-(Methylsulfonyl)-N-phenyl-N-(4-(5-(trifluoromethyl)-1,3,4-oxadiazol-2-yl)benzyl)piperazine-1-carboxamide]	118 fold	84.8 nM
CC(=O)N1CCN(C(=O)N(Cc2ccc(-c3nnc(C(F)(F)F)o3)cc2)c2ccccc2)CC1 [Compound 21364, 4-Acetyl-N-phenyl-N-(4-(5-(trifluoromethyl)-1,3,4-oxadiazol-2-yl)benzyl)piperazine-1-carboxamide]	108 fold	92.4 nM
CCCN(C)C(=O)N(Cc1ccc(-c2nnc(C(F)(F)F)o2)cc1)c1ccccc1 [Compound 21402, 1-Methyl-3-phenyl-1-propyl-3-(4-(5-(trifluoromethyl)-1,3,4-oxadiazol-2-yl)benzyl)urea]	45 fold	222 nM
O=C(N1CCN(C2COC2)CC1)N(Cc1ccc(-c2nnc(C(F)F)o2)cn1)c1cccc(Cl)c1 [Compound 21944, N-(3-Chlorophenyl)-N-((5-(5-(difluoromethyl)-1,3,4-oxadiazol-2-yl)pyridin-2-yl)methyl)-4-(oxetan-3-yl)piperazine-1-carboxamide]	201 fold	50 nM
CN(C)CCNC(=O)N(Cc1ccc(-c2nnc(C(F)F)o2)cc1)c1ccccc1 [Compound 21577, 1-(4-(5-(Difluoromethyl)-1,3,4-oxadiazol-2-yl)benzyl)-3-(2-(dimethylamino)ethyl)-1-phenylurea]	152 fold	66 nM
O=C(N1CCOCC1)N(Cc1ccc(-c2nnc(C(F)F)o2)cc1F)C12CC3CC(CC(C3)C1)C2 [Compound 21910, N-((3s,5s,7s)-adamantan-1-yl)-N-(4-(5-(difluoromethyl)-1,3,4-oxadiazol-2-yl)-2-fluorobenzyl)morpholine-4-carboxamide]	21 fold	470 nM
O=C(N1CCOCC1)N(Cc1ccc(-c2nnc(C(F)F)o2)cc1F)c1nccs1 [Compound 22018, N-(4-(5-(Difluoromethyl)-1,3,4-oxadiazol-2-yl)-2-fluorobenzyl)-N-(thiazol-2-yl)morpholine-4-carboxamide]	4 fold	2390 nM
O=C(N1CCOCC1)N(Cc1cccc(-c2nnc(C(F)(F)F)o2)c1)c1ccccc1 [Compound 21329, N-phenyl-N-(3-(5-(trifluoromethyl)-1,3,4-oxadiazol-2-yl)benzyl)morpholine-4-carboxamide]	1 fold	–
Cn1ccc2cc(-c3ccc(N(Cc4ccc(-c5nnc(C(F)(F)F)o5)cc4F)C(=O)N4CCS(=O)(=O)CC4)cc3)ccc21 [Compound 21521, N-(2-fluoro-4-(5-(trifluoromethyl)-1,3,4-oxadiazol-2-yl)benzyl)-N-(4-(1-methyl-1H-indol-5-yl)phenyl)thiomorpholine-4-carboxamide 1,1-dioxide]	18 fold	565 nM
O=C(N1CCS(=O)(=O)CC1)N(Cc1ccc(-c2nnc(C(F)F)o2)cc1Cl)c1ccccc1 [Compound 21411, N-(2-chloro-4-(5-(difluoromethyl)-1,3,4-oxadiazol-2-yl)benzyl)-N-phenylthiomorpholine-4-carboxamide 1,1-dioxide]	5 fold	2150 nM
O=C(N1CCOCC1)N(Cc1c(F)cc(-c2nnc(C(F)F)o2)cc1F)c1ccccc1 [Compound 21432, N-(4-(5-(difluoromethyl)-1,3,4-oxadiazol-2-yl)-2,6-difluorobenzyl)-N-phenylmorpholine-4-carboxamide]	208 fold	48 nM
O=C(NCCN(Cc1ccccc1)Cc1ccccc1)N(Cc1ccc(-c2nnc(C(F)F)o2)cc1F)c1ccccc1 [Compound 22017, 3-(2-(Dibenzylamino)ethyl)-1-(4-(5-(difluoromethyl)-1,3,4-oxadiazol-2-yl)-2-fluorobenzyl)-1-phenylurea]	7 fold	1380 nM
COc1ccccc1N(Cc1ccc(-c2nnc(C(F)F)o2)cc1F)C(=O)N1CCS(=O)(=O)CC1 [Compound 21480, N-(4-(5-(difluoromethyl)-1,3,4-Oxadiazol-2-yl)-2-fluorobenzyl)-N-(2-methoxyphenyl)thiomorpholine-4-carboxamide 1,1-dioxide]	204 fold	49 nM
O=C(NCCN1CCN(c2ccccn2)CC1)N(Cc1ccc(-c2nnc(C(F)F)o2)cc1F)c1ccccc1 [Compound 22008, 1-(4-(5-(Difluoromethyl)-1,3,4-oxadiazol-2-yl)-2-fluorobenzyl)-1-phenyl-3-(2-(4-(pyridin-2-yl)piperazin-1-yl)ethyl)urea]	73 fold	138 nM
O=C(N1CCOCC1)N(Cc1ccncc1)Cc1ccc(-c2nnc(C(F)(F)F)o2)cc1 [Compound 21464, N-(pyridin-4-ylmethyl)-N-(4-(5-(trifluoromethyl)-1,3,4-oxadiazol-2-yl)benzyl)morpholine-4-carboxamide]	6 fold	1730 nM
O=C(N1CCS(=O)(=O)CC1)N(Cc1ccc(-c2nnc(C(F)F)o2)cc1F)c1ccc(F)cc1 [Compound 21806, N-(4-(5-(difluoromethyl)-1,3,4-oxadiazol-2-yl)-2-fluorobenzyl)-N-(4-fluorophenyl)thiomorpholine-4-carboxamide 1,1-dioxide]	261 fold	38 nM
CCn1ncc2ccc(N(Cc3ccc(-c4nnc(C(F)F)o4)cc3F)C(=O)N3CCS(=O)(=O)CC3)cc21 [Compound 21811, N-(4-(5-(Difluoromethyl)-1,3,4-oxadiazol-2-yl)-2-fluorobenzyl)-N-(1-ethyl-1H-indazol-6-yl)thiomorpholine-4-carboxamide 1,1-dioxide]	144 fold	70 nM
O=C(N1CCS(=O)(=O)CC1)N(Cc1ccc(-c2nnc(C(F)F)o2)cc1F)c1ccc(CN2CCC(F)(F)CC2)cc1 [Compound 21916, N-(4-(5-(difluoromethyl)-1,3,4-oxadiazol-2-yl)-2-fluorobenzyl)-N-(4-((4,4-difluoropiperidin-1-yl)methyl)phenyl)thiomorpholine-4-carboxamide 1,1-dioxide]	43 fold	232 nM

— patent publication US10717716B2, “1,3,4-oxadiazole derivative compounds as histone deacetylase 6 inhibitor, and the pharmaceutical composition comprising the same” (Chong Kun Dang Pharmaceutical Corp., priority 2015, dated 2020)
